Laboratory results: the supplement of paper PMC10307832

Each cell line was assayed with Cn1nnc2c(C(N)=O)ncn2c1=O [Temozolomide] + CC(C)C[C@H](NC(=O)[C@H](Cc1ccccc1)NC(=O)c1cnccn1)B(O)O [Bortezomib] (partner 0.002 µM) (assay: relative viability (nuclei count vs DMSO), 5 days (fraction); higher = more cells survive). Details: first compound 0.2 µM.
In short: (§1)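 Relative viability equals treated-well nuclei counts divided by vehicle-well nuclei counts. Counts came from 4× images of lung cancer cell lines grown in 1536-well plates for 5 days after pin-tool dosing on the day after seeding. Dosing used one drug alone or a fixed anchor-drug dose plus five library-drug doses (not always all listed) in √10 steps, and values are medians of duplicate plates.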
For NCI-H1734, the relative viability was 1.07. Cell Line NCI-H1755 has a relative viability of 0.961. For NCI-H1915, the relative viability was 0.972. In the case of NCI-H1975, the relative viability is reported as 0.462. NCI-H1993 was tested, and the relative viability was 0.944. NCI-H2009 showed a relative viability of 1.19. NCI-H2023 showed a relative viability of 1.01. NCI-H2085 was tested, and the relative viability was 0.992. NCI-H2087 gave a relative viability of 0.973. With NCI-H2126 the relative viability was 1.13. With NCI-H2228 the relative viability was 1.15. Work on NCI-H2347 yielded a relative viability of 1.34. With NCI-H2405 the relative viability was 1.07. NCI-H3122 gave a relative viability of 1.01. In the case of PC-3 [JPC-3], the relative viability is reported as 0.844. In the case of PC-14, the relative viability is reported as 0.94.

Same assay, conditions: first compound 0.6325 µM
LU99A showed a relative viability of 1.17. LXF-289 gave a relative viability of 1.03. For NCI-H23, the relative viability was 1.19. Work on NCI-H322M yielded a relative viability of 1.25. Work on NCI-H441 yielded a relative viability of 0.336. Work on NCI-H460 yielded a relative viability of 1.11. In the case of NCI-H520, the relative viability is reported as 0.688. NCI-H596 gave a relative viability of 1.02. NCI-H647 gave a relative viability of 0.902. In the case of NCI-H650, the relative viability is reported as 1.08. With NCI-H661 the relative viability was 0.889. NCI-H838 showed a relative viability of 0.929. NCI-H1355 gave a relative viability of 1.2. NCI-H1437 showed a relative viability of 0.42. With NCI-H1650 the relative viability was 0.175. For NCI-H1651, the relative viability was 0.975. NCI-H1666 was tested, and the relative viability was 0.9. NCI-H1734 showed a relative viability of 0.871. In the case of NCI-H1755, the relative viability is reported as 0.952. NCI-H1915 showed a relative viability of 0.96. Cell Line NCI-H1975 has a relative viability of 0.418. Work on NCI-H1993 yielded a relative viability of 1.19. NCI-H2009 showed a relative viability of 1. In the case of NCI-H2023, the relative viability is reported as 0.905. NCI-H2085 was tested, and the relative viability was 1.26. For NCI-H2087, the relative viability was 0.918. Cell Line NCI-H2126 has a relative viability of 1.15. In the case of NCI-H2228, the relative viability is reported as 1.03. NCI-H2347 was tested, and the relative viability was 1.05. NCI-H2405 was tested, and the relative viability was 0.976. For NCI-H3122, the relative viability was 1.1. PC-3 [JPC-3] was tested, and the relative viability was 0.781. Cell Line PC-14 has a relative viability of 0.872.

Same assay, conditions: first compound 2 µM
LU99A was tested, and the relative viability was 1.07. LXF-289 gave a relative viability of 1.05. NCI-H23 showed a relative viability of 0.993. In the case of NCI-H322M, the relative viability is reported as 1.19. For NCI-H441, the relative viability was 0.722. NCI-H460 gave a relative viability of 1.02. Cell Line NCI-H520 has a relative viability of 0.768. For NCI-H596, the relative viability was 0.97. In the case of NCI-H647, the relative viability is reported as 0.836. For NCI-H650, the relative viability was 0.787. Work on NCI-H661 yielded a relative viability of 0.887. For NCI-H838, the relative viability was 1.1. Cell Line NCI-H1355 has a relative viability of 1.2. NCI-H1437 showed a relative viability of 0.648. In the case of NCI-H1650, the relative viability is reported as 0.205. For NCI-H1651, the relative viability was 0.989. NCI-H1666 gave a relative viability of 0.595. For NCI-H1734, the relative viability was 0.963. For NCI-H1755, the relative viability was 1.01. Cell Line NCI-H1915 has a relative viability of 0.933. Cell Line NCI-H1975 has a relative viability of 0.384. Cell Line NCI-H1993 has a relative viability of 1.14. Cell Line NCI-H2009 has a relative viability of 1.19. NCI-H2023 showed a relative viability of 1.05. For NCI-H2085, the relative viability was 1.04. In the case of NCI-H2087, the relative viability is reported as 0.738. NCI-H2126 showed a relative viability of 1.1. Cell Line NCI-H2228 has a relative viability of 1.02. For NCI-H2347, the relative viability was 0.995. In the case of NCI-H2405, the relative viability is reported as 1.01. Work on NCI-H3122 yielded a relative viability of 1.04. PC-3 [JPC-3] showed a relative viability of 0.874. For PC-14, the relative viability was 0.943.

Same assay, conditions: first compound 6.325 µM
LU99A was tested, and the relative viability was 1.06. LXF-289 gave a relative viability of 0.928. With NCI-H23 the relative viability was 0.968. NCI-H322M was tested, and the relative viability was 1.2. NCI-H441 showed a relative viability of 0.363. NCI-H460 gave a relative viability of 1.24. NCI-H520 showed a relative viability of 0.636. NCI-H596 showed a relative viability of 0.908. NCI-H647 was tested, and the relative viability was 0.792. NCI-H650 showed a relative viability of 0.807. NCI-H661 was tested, and the relative viability was 0.844. In the case of NCI-H838, the relative viability is reported as 0.847. NCI-H1355 showed a relative viability of 1.09. With NCI-H1437 the relative viability was 0.409. NCI-H1650 was tested, and the relative viability was 0.167. NCI-H1651 was tested, and the relative viability was 0.915. NCI-H1666 gave a relative viability of 0.647. NCI-H1734 gave a relative viability of 0.771. Cell Line NCI-H1755 has a relative viability of 0.897. Cell Line NCI-H1915 has a relative viability of 0.729. NCI-H1975 showed a relative viability of 0.413. NCI-H1993 was tested, and the relative viability was 1.07. With NCI-H2009 the relative viability was 0.961. NCI-H2023 showed a relative viability of 0.933. For NCI-H2085, the relative viability was 1.01. Cell Line NCI-H2087 has a relative viability of 0.681. For NCI-H2126, the relative viability was 1.1. NCI-H2228 was tested, and the relative viability was 0.956. With NCI-H2347 the relative viability was 0.836. Work on NCI-H2405 yielded a relative viability of 0.715. Cell Line NCI-H3122 has a relative viability of 0.937. With PC-3 [JPC-3] the relative viability was 0.791. PC-14 showed a relative viability of 0.83.

Same assay, conditions: first compound 20 µM
LU99A gave a relative viability of 1.01. LXF-289 was tested, and the relative viability was 0.934. Work on NCI-H23 yielded a relative viability of 0.993. NCI-H322M was tested, and the relative viability was 0.962. Work on NCI-H441 yielded a relative viability of 0.44. Work on NCI-H460 yielded a relative viability of 1.14. NCI-H520 showed a relative viability of 0.548. For NCI-H596, the relative viability was 1.07. NCI-H647 gave a relative viability of 0.283. For NCI-H650, the relative viability was 0.941. With NCI-H661 the relative viability was 0.864. Work on NCI-H838 yielded a relative viability of 0.832. NCI-H1355 gave a relative viability of 1.14. For NCI-H1437, the relative viability was 0.452. NCI-H1650 gave a relative viability of 0.196. NCI-H1651 showed a relative viability of 0.898. Work on NCI-H1666 yielded a relative viability of 0.416. For NCI-H1734, the relative viability was 0.949. Work on NCI-H1755 yielded a relative viability of 0.84. NCI-H1915 was tested, and the relative viability was 0.354. NCI-H1975 showed a relative viability of 0.298. NCI-H1993 gave a relative viability of 0.736. In the case of NCI-H2009, the relative viability is reported as 1.04. In the case of NCI-H2023, the relative viability is reported as 0.855. Cell Line NCI-H2085 has a relative viability of 0.888. NCI-H2087 showed a relative viability of 0.948. Cell Line NCI-H2126 has a relative viability of 1.08. Cell Line NCI-H2228 has a relative viability of 1.02. For NCI-H2347, the relative viability was 1.07. With NCI-H2405 the relative viability was 0.954. Cell Line NCI-H3122 has a relative viability of 1.04. PC-3 [JPC-3] was tested, and the relative viability was 0.418. PC-14 showed a relative viability of 1.04.

These cell lines were tested with Cn1nnc2c(C(N)=O)ncn2c1=O [Temozolomide] + Cc1nc(Nc2ncc(C(=O)Nc3c(C)cccc3Cl)s2)cc(N2CCN(CCO)CC2)n1 [Dasatinib] (partner 0.075 µM) in the same assay as above. Details: first compound 0.2 µM.
In short: as §1
Work on LU99A yielded a relative viability of 0.589. LXF-289 gave a relative viability of 0.27. NCI-H23 was tested, and the relative viability was 0.921. In the case of NCI-H441, the relative viability is reported as 0.656. In the case of NCI-H460, the relative viability is reported as 0.525. With NCI-H520 the relative viability was 0.24. NCI-H596 showed a relative viability of 0.601. Work on NCI-H647 yielded a relative viability of 0.206.
